Reference: patent US12297194B2, “N2-phenylpyrimidine-2,4-diamine compounds, and preparation methods and methods of use thereof” (BRIDGE BIOTHERAPEUTICS, INC., priority 2021, dated 2025)

Tests used:
Format in all cases: cell-based, murine
[1] = target: Ba/F3 EGFR L858R/T790M/C797S mutants (Homo sapiens, UniProt P00533, T790M/C797S/L858R, cells depend on it); test: CellTiter-Glo cell viability, Ba/F3 EGFR L858R/T790M/C797S cells; conditions: 72 hours, read-out: Ba/F3 EGFR mutant cell (IC50, nM) L/T/C
Description: (§1) In order to evaluate an inhibitory ability on wild-type Ba/F3 EGFR and Ba/F3 EGFR mutations in Ba/F3 cell lines by the compounds of Formula 1, the experiment was carried out as described below.
(§2) The measurement of activities on Ba/F3 cells harboring wild-type EGFR and EGFR mutants by the compounds of the present invention were determined utilizing the CELLTITER-GLO™ system from Promega, as follows. The CELLTITER-GLO™ assay is a method for measuring the ATP present in cells to determine the cell viability. Ba/F3 EGFR wild-type and Ba/F3 EGFR L858R/C797S (L/C), Ba/F3 EGFR L858R/T790M/C797S (L/T/C), Ba/F3 EGFR Del19/T790M (D/T), Ba/F3 EGFR Del19/C797S (D/C), Ba/F3 EGFR Del19/T790M/C797S (D/T/C) mutant cell lines were maintained in RPMI1640, containing […], 1% penicillin-streptomycin, […] puromycin. Cells were grown in a humidified incubator at 37° C. with […].
(§3) The analysis of an EGFR inhibitory activity by the compounds was carried out in accordance with the analysis reaction recipe below.
(§4) 2500 cells/90 μL were seeded in 96 well cell culture plate, and after 24 hours, treated with the compounds represented by Formula 1 in concentrations of 0, 0.3, 0.9, 2.7, 8.2, 24.7, 74.1, 222.2, 666.7, 2000 (nM). After the reaction of 72 hours, the plate was incubated for 30 minutes at ambient temperature, and then, was further treated with 100 μL of the CELLTITER-GLO™ reagent and was shaken for 10 minutes at ambient temperature. Finally, measurement of the luminescence values were obtained using the SPECTRAMAX™ iD3 (Molecular Devices), and the IC50 values of the compound were analyzed using the GraphPad Prism program (version 9.0.2, GraphPad Software, Inc.).

[2] = target: Ba/F3 EGFR Del19/T790M/C797S mutants (Homo sapiens, UniProt P00533, T790M/C797S, cells depend on it, form not given); test: CellTiter-Glo cell viability, Ba/F3 EGFR Del19/T790M/C797S cells; conditions: 72 hours, read-out: Ba/F3 EGFR mutant cell (IC50, nM) D/T/C
Description: as §1, §2, §3, §4

Ba/F3 EGFR Wild-type = Ba/F3 EGFR Wild-type (Homo sapiens, UniProt P00533); test: CellTiter-Glo cell viability, Ba/F3 EGFR wild-type cells; conditions: 72 hours, read-out: Ba/F3 EGFR mutant cell (IC50, nM) WT
Description: as §1, §2, §3, §4

[3] = target: Ba/F3 EGFR L858R/C797S mutants (Homo sapiens, UniProt P00533, C797S/L858R, cells depend on it); test: CellTiter-Glo cell viability, Ba/F3 EGFR L858R/C797S cells; conditions: 72 hours, read-out: Ba/F3 EGFR mutant cell (IC50, nM) L/C
Description: as §1, §2, §3, §4

[4] = target: Ba/F3 EGFR Del19/C797S mutants (Homo sapiens, UniProt P00533, C797S, cells depend on it, form not given); test: CellTiter-Glo cell viability, Ba/F3 EGFR Del19/C797S cells; conditions: 72 hours, read-out: Ba/F3 EGFR mutant cell (IC50, nM) D/C
Description: as §1, §2, §3, §4

Sequence of Ba/F3 EGFR L858R/T790M/C797S mutants (P00533 whole entry T790M/C797S/L858R): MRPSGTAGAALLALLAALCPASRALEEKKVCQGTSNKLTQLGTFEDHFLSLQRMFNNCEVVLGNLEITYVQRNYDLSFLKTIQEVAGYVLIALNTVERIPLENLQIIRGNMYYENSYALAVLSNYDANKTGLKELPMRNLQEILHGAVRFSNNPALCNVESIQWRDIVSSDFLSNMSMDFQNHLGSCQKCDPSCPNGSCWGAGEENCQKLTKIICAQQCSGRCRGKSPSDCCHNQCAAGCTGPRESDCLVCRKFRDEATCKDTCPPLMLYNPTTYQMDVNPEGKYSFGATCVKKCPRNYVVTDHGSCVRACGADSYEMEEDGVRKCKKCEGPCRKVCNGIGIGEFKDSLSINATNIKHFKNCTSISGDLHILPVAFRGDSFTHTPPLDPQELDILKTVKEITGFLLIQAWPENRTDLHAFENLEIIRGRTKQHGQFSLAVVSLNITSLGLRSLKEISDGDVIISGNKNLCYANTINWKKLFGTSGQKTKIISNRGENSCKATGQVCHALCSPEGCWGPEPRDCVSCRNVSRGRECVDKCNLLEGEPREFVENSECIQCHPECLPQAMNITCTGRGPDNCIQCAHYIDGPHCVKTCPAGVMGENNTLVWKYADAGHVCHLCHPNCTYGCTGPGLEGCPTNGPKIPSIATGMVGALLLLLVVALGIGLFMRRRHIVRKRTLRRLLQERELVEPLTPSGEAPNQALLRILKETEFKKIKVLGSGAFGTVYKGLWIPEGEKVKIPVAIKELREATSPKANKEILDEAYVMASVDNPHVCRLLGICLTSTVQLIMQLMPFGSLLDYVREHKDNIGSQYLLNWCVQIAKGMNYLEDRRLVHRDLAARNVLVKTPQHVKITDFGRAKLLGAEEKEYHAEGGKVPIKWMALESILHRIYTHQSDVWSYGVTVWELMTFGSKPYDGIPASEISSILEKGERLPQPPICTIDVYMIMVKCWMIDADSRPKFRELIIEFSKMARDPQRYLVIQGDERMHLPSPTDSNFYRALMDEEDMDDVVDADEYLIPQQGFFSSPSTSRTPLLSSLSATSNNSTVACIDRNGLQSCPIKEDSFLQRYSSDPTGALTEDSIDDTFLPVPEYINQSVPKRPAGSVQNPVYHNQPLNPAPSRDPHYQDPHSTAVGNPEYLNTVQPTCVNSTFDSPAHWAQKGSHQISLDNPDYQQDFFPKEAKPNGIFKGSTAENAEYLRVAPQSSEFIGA
Sequence of Ba/F3 EGFR Del19/T790M/C797S mutants (P00533 with tags, fused parts or gaps DEL746-750/T790M/C797S, form open): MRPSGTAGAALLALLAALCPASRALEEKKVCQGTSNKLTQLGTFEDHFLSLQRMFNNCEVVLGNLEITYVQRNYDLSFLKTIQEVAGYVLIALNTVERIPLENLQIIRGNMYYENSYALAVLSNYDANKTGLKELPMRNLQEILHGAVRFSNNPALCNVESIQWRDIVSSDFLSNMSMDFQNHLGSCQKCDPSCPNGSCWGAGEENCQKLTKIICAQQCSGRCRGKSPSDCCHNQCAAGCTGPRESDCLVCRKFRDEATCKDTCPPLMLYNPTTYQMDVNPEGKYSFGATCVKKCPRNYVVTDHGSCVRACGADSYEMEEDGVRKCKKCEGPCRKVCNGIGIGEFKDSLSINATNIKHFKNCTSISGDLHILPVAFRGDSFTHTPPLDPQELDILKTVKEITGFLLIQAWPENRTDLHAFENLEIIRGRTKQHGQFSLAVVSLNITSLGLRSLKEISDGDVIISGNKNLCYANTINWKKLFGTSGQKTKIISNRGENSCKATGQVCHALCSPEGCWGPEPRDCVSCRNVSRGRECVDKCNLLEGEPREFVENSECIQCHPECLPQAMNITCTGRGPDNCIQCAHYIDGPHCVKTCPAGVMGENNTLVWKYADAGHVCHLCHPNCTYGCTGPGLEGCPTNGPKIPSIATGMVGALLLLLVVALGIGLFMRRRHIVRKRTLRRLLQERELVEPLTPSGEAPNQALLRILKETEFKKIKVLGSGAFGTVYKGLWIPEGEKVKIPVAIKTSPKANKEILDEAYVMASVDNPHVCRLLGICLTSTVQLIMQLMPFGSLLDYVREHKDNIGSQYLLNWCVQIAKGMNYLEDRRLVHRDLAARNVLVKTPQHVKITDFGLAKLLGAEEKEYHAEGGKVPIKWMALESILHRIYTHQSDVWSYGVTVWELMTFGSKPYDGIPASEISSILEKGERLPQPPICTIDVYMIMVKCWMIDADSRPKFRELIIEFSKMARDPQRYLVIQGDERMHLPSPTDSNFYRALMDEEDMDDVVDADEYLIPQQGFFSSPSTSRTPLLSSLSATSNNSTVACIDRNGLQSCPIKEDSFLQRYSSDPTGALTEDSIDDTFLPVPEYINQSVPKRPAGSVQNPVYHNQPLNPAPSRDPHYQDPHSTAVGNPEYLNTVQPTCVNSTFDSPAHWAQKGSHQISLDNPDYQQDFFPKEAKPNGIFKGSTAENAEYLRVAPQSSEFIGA
Sequence of Ba/F3 EGFR Del19/C797S mutants (P00533 with tags, fused parts or gaps DEL746-750/C797S, form open): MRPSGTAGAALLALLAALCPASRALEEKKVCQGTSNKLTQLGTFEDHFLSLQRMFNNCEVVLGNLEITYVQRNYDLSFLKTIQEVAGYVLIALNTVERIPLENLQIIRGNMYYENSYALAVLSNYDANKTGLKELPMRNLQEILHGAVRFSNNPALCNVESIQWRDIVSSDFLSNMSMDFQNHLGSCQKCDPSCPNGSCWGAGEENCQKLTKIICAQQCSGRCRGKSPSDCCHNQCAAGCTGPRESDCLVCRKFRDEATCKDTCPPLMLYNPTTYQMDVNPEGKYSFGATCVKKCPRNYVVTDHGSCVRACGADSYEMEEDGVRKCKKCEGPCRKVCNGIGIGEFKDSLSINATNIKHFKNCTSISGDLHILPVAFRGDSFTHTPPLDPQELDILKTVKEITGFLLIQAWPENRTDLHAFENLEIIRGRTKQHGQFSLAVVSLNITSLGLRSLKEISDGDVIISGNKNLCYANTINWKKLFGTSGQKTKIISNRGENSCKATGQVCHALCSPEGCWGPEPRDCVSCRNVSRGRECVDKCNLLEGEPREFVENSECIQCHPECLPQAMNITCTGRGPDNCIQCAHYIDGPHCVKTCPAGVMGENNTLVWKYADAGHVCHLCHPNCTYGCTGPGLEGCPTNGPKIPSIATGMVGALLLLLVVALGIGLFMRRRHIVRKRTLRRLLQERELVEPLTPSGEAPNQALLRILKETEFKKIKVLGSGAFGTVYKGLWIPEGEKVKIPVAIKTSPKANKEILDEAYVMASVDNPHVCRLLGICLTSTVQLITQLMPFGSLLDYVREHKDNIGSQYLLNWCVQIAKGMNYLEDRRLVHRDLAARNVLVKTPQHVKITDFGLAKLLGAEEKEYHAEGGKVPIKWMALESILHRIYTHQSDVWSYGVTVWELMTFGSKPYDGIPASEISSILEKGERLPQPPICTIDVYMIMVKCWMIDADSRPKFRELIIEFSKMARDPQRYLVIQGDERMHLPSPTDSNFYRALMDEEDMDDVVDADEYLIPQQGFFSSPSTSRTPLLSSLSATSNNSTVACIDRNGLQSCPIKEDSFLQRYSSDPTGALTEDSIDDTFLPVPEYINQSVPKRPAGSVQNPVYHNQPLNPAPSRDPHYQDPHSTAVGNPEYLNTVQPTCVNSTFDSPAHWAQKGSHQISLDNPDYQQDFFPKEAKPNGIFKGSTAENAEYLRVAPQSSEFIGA
Sequence of Ba/F3 EGFR Wild-type (P00533 whole entry, change not shown): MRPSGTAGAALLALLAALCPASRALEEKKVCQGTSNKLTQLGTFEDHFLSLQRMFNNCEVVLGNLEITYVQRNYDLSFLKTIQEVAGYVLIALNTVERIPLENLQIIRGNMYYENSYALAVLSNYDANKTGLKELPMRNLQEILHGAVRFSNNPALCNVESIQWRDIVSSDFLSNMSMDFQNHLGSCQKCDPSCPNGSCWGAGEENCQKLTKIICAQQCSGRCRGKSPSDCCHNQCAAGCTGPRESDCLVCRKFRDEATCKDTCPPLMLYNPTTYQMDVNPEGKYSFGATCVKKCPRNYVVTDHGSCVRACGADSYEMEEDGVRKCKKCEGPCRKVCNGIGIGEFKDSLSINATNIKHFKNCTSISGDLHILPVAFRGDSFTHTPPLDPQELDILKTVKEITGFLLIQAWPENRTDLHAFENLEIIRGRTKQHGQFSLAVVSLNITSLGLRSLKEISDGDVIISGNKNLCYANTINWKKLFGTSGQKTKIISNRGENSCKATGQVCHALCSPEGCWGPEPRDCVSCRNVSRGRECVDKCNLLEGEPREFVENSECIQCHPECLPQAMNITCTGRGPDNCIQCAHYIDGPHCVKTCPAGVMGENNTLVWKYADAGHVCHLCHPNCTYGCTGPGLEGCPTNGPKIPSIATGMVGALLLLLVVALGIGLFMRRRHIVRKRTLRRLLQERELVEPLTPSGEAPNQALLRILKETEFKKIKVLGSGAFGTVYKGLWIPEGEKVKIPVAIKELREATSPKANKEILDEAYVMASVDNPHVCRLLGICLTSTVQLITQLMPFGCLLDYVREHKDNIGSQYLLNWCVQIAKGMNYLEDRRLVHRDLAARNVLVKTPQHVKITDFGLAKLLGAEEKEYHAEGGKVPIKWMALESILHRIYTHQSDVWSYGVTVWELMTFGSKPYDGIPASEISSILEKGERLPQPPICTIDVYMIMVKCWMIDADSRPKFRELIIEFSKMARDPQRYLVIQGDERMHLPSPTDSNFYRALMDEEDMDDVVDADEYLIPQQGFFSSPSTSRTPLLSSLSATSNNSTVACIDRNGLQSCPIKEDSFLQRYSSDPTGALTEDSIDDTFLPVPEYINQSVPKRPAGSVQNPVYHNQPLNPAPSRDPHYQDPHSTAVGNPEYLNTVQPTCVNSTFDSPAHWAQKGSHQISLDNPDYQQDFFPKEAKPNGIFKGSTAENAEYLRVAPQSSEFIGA

Row | Structure (SMILES) | GI50 [1] [nM] | GI50 [2] [nM] | GI50 (Ba/F3 EGFR Wild-type) [nM] | GI50 [3] [nM] | GI50 [4] [nM]
1 | COc1cc(N2CCC(N3CCN(C)CC3)CC2)ccc1Nc1ncc(Cl)c(Nc2ccc3nccnc3c2NS(C)(=O)=O)n1 [Example A3, N-(6-((5-chloro-2-((2-methoxy-4-(4-(4-methylpiperazin-1-yl)piperidin-1-yl)phenyl)amino)pyrimidin-4-yl)amino)quinoxalin-5-yl)methanesulfonamide] | 97.6 | 48 |  |  | 
2 | COc1cc(N2CCC(N3CCN(C)CC3)CC2)c(C2CC2)cc1Nc1ncc(Cl)c(Nc2ccc3nccnc3c2NS(C)(=O)=O)n1 [Example A5, N-(6-((5-chloro-2-((5-cyclopropyl-2-methoxy-4-(4-(4-methylpiperazin-1-yl)piperidin-1-yl)phenyl)amino)pyrimidin-4-yl)amino)quinoxalin-5-yl)methanesulfonamide] | 69 | 23 | 938 | 244 | 76
3 | COc1cc(N2CCC(N3CCN(C)CC3)CC2)c(C(F)(F)F)cc1Nc1ncc(Cl)c(Nc2ccc3nccnc3c2NS(C)(=O)=O)n1 [Example A7, N-(6-((5-chloro-2-((2-methoxy-4-(4-(4-methylpiperazin-1-yl)piperidin-1-yl)-5-(trifluoromethyl)phenyl)amino)pyrimidin-4-yl)amino)quinoxalin-5-yl)methanesulfonamide] | 169 | 36 | 602 | 246 | 96
4 | CCc1cc(Nc2ncc(Br)c(Nc3ccc4nccnc4c3NS(C)(=O)=O)n2)c(OC)cc1N1CCC(N2CCN(C)CC2)CC1 [Example A8, N-(6-((5-bromo-2-((5-ethyl-2-methoxy-4-(4-(4-methylpiperazin-1-yl)piperidin-1-yl)phenyl)amino)pyrimidin-4-yl)amino)quinoxalin-5-yl)methanesulfonamide] | 18 | 6 | 919 | 147 | 38
5 | CCc1cc(Nc2ncc(F)c(Nc3ccc4nccnc4c3NS(C)(=O)=O)n2)c(OC)cc1N1CCC(N2CCN(C)CC2)CC1 [Example A9, N-(6-((2-((5-ethyl-2-methoxy-4-(4-(4-methylpiperazin-1-yl)piperidin-1-yl)phenyl)amino)-5-fluoropyrimidin-4-yl)amino)quinoxalin-5-yl)methanesulfonamide] | 80 | 62 | 524 | 106 | 15
6 | CNc1cc(N2CCC(N3CCN(C)CC3)CC2)c(C)cc1Nc1ncc(Cl)c(Nc2ccc3nccnc3c2NS(C)(=O)=O)n1 [Example A13, N-(6-((5-chloro-2-((5-methyl-2-(methylamino)-4-(4-(4-methylpiperazin-1-yl)piperidin-1-yl)phenyl)amino)pyrimidin-4-yl)amino)quinoxalin-5-yl)methanesulfonamide] | 338 | 109 | > 2000 | 646 | 265
7 | COc1cc(N2CCC(N3CCN(C)CC3)CC2)c(C)cc1Nc1ncc(C(F)(F)F)c(Nc2ccc3nccnc3c2NS(C)(=O)=O)n1 [Example A20, N-(6-((2-((2-methoxy-5-methyl-4-(4-(4-methylpiperazin-1-yl)piperidin-1-yl)phenyl)amino)-5-(trifluoromethyl)pyrimidin-4-yl)amino)quinoxalin-5-yl)methane sulfonamide] | > 2000 | 1590 | > 2000 | > 2000 | > 2000
8 | COc1cc(N2CCC(N3CCN(C)CC3)CC2)c(C)cc1Nc1ncc(F)c(Nc2ccc3nccnc3c2NS(C)(=O)=O)n1 [Example A22, N-(6-((5-fluoro-2-((2-methoxy-5-methyl-4-(4-(4-methylpiperazin-1-yl)piperidin-1-yl)phenyl)amino)pyrimidin-4-yl)amino)quinoxalin-5-yl)methanesulfonamide] | 369 | 189 | 521 | 189 | 73
9 | COc1cc(N2CCC(N3CCN(C)CC3)CC2)c(C)cc1Nc1ncc(Cl)c(Nc2ccc3nccnc3c2NS(=O)(=O)C2CC2)n1 [Example A26, N-(6-((5-chloro-2-((2-methoxy-5-methyl-4-(4-(4-methylpiperazin-1-yl)piperidin-1-yl)phenyl)amino)pyrimidin-4-yl)amino)quinoxalin-5-yl)cyclopropanesulfonamide] | 107 | 79 | 1280 | 163 | 72
10 | CCc1cc(Nc2ncc(Br)c(Nc3ccc4nccnc4c3NS(C)(=O)=O)n2)c(OC)cc1N1CCC(N(C)C)CC1 [Example B2, N-(6-((5-bromo-2-((4-(4-(dimethylamino)piperidin-1-yl)-5-ethyl-2-methoxyphenyl)amino)pyrimidin-4-yl)amino)quinoxalin-5-yl)methanesulfonamide] | 13 | 7 | 2100 | 195 | 28
11 | COc1cc(N2CCC(N(C)C)CC2)ccc1Nc1ncc(Br)c(Nc2ccc3nccnc3c2NS(C)(=O)=O)n1 [Example B3, N-(6-((5-bromo-2-((4-(4-(dimethylamino)piperidin-1-yl)-2-methoxyphenyl)amino)pyrimidin-4-yl)amino)quinoxalin-5-yl)methanesulfonamide] | 86 | 30 | 725 | 325 | 147
12 | COc1cc(N2CCC(N(C)C)CC2)c(C)cc1Nc1ncc(Cl)c(Nc2ccc3nccnc3c2NS(C)(=O)=O)n1 [Example B4, N-(6-((5-chloro-2-((4-(4-(dimethylamino)piperidin-1-yl)-2-methoxy-5-methylphenyl)amino)pyrimidin-4-yl)amino)quinoxalin-5-yl)methanesulfonamide] | 9 | 4 | 10 | 14 | 9
13 | CCc1cc(Nc2ncc(Cl)c(Nc3ccc4nccnc4c3NS(C)(=O)=O)n2)c(OC)cc1N1CCC(N(C)C)CC1 [Example B5, N-(6-((5-chloro-2-((4-(4-(dimethylamino)piperidin-1-yl)-5-ethyl-2-methoxyphenyl)amino)pyrimidin-4-yl)amino)quinoxalin-5-yl)methanesulfonamide] | 36 | 14 | 1860 | 223 | 30
14 | COc1cc(N2CCC(N(C)C)CC2)c(C)cc1Nc1ncc(C(F)(F)F)c(Nc2ccc3nccnc3c2NS(C)(=O)=O)n1 [Example B9, N-(6-((2-((4-(4-(dimethylamino)piperidin-1-yl)-2-methoxy-5-methylphenyl)amino)-5-(trifluoromethyl)pyrimidin-4-yl)amino)quinoxalin-5-yl) methane sulfonamide] | > 2000 | > 2000 | > 2000 | > 2000 | > 2000
15 | COc1cc(N2CCOCC2)c(C)cc1Nc1ncc(Br)c(Nc2ccc3nccnc3c2NS(C)(=O)=O)n1 [Example B10, N-(6-((5-bromo-2-((2-methoxy-5-methyl-4-morpholinophenyl)amino)pyrimidin-4-yl)amino)quinoxalin-5-yl)methanesulfonamide] | 584 | 252 | 858 | 678 | 537
16 | COc1cc(C2CCNCC2)ccc1Nc1ncc(F)c(Nc2ccc3nccnc3c2NS(C)(=O)=O)n1 [Example B17, N-(6-((5-fluoro-2-((2-methoxy-4-(piperidin-4-yl)phenyl)amino)pyrimidin-4-yl)amino)quinoxalin-5-yl)methanesulfonamide] | > 2000 | > 2000 | > 2000 | > 2000 | 1250
17 | CC(C)Oc1cc(C2CCNCC2)ccc1Nc1ncc(Cl)c(Nc2ccc3nccnc3c2NS(C)(=O)=O)n1 [Example B22, N-(6-((5-chloro-2-((2-isopropoxy-4-(piperidin-4-yl)phenyl)amino)pyrimidin-4-yl)amino)103quinoxaline-5-yl)methanesulfonamide] | > 2000 | > 2000 | > 2000 | > 2000 | 
